Assay results as given in patent publication US20030069169A1, “Co-administration of melanocortin receptor agonist and phosphodiesterase inhibitor for treatment of cyclic-AMP associated disorders” (priority 2001, published 2003).

How the values were obtained:
human MC-1R = biological target: T1, human MC-1R (Homo sapiens, UniProt Q01726); test: MC-1R cAMP SPA assay in HBL cells; type: cell-based; conditions: read-out: potency as agonist of the MC-1R
T1 construct: HBL cells, a human melanoma cell line licensed from Prof; G. Ghanem; endogenous in cells; host or cells: HBL human melanoma cells
Method: HBL cells, a human melanoma cell line licensed from Prof. G. Ghanem (Lab. of Oncology & Exp. Surgery, Free University of Brussels, Brussels, Belgium) were used as a source of the human MC-1R. cAMP was measured using the cAMP SPA Direct Screening Assay System from Amersham (RPA 559). 20,000 HBL cells were plated into each well of a half-area 96 well white plate and were used between 16-48 hours after plating. Cells were incubated at 37° C. for 15 minutes in 25 μM IBMX to inhibit phosphodieterase activity. As per kit instructions, Assay Buffer Concentrate was diluted 1 to 50 with dH2O to prepare Assay Buffer (50 mM acetate buffer containing 0.01% sodium azide). Vials containing rabbit anti-succinyl cAMP serum and the tracer, adenosine 3′,5′-cyclic phosphoric acid 2′-0-succinyl-3-[^125I] iodotyrosine methyl ester, were resuspended with 7.5 ml Assay Buffer. SPA anti-rabbit reagent (donkey anti-rabbit IgG coupled to SPA PVT beads) was resuspended with 15 ml Assay Buffer. All reagents were stored at 4° C. after reconstitution. Melanocortin ligands or compounds were prepared in DMSO and added to the IBMX-treated cells as 100×concentrated stocks. […] Plates were subsequently counted for 6 minutes per sample in a TopCount scintillation reader with background subtraction. Data was analyzed in relation to a cAMP standard curve.

[1] = test system: LPS-induced TNF-α production; test: endotoxin-induced TNF-α accumulation model in Balb/C mice; type: in vivo; conditions: for % Inhibition of LPS-induced TNF-α levels: balb/C mice, rolipram 10 ug/kg, NDP-MSH 2.5 mg/kg, alone or combined, co-administered with LPS by tail vein injection
Method: Melanocortin receptor agonists and cAMP-PDE inhibitors were evaluated for anti-inflammatory activity in vivo by using an endotoxin-induced TNF-α accumulation model in Balb/C mice. Compounds were administered either by s.c injection or co-injected with endotoxin in the tail vein. Both rolipram and melanocortin agonists inhibit endotoxin-induced TNF-α accumulation in this model.
FIG. 1 reports the results of administration of the compound of Example 11, below, in this model. Example 11 was administered by s.c. injection to five mice for each dose of 1.2 μmol/kg, 3.7 μmol/kg, 11.1 μmol/kg, 33.3 μmol/kg, and 100 μmol/kg. The compound was administered 1 hour prior to the LPS-induced challenge.
A second experiment was conducted in which the effect of the cAMP-PDE inhibitor rolipram and the melanocortin receptor agonist NDP-MSH was determined.
The four bar graphs of FIG. 2 reflect the inhibition in LPS-induced TNF-α a production in balb/C mice upon administration of (1) no agent (control); (2) 10 ug/kg ROLIPRAM (3) 2.5 mg/kg NDP-MSH and (4) 10 ug/kg ROLIPRAM in combination with 2.5 mg/kg NDP-MSH. Compounds were co-administered with LPS by tail vein injection. […] Administration of 2.5 mg/kg NDP-MSH inhibited TNF-α levels by 64%.

T1 sequence (Q01726 whole entry): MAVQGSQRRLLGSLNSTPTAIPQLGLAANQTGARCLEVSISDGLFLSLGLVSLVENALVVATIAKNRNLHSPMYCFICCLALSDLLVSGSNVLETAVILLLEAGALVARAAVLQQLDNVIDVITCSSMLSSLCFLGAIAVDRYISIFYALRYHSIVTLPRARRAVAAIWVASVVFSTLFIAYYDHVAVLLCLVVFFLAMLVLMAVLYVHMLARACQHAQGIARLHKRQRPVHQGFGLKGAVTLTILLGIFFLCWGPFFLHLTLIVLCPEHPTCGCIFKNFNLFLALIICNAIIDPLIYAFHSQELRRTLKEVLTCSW

EC50 (human MC-1R) [nM]	Molecule	inhibition of endotoxin-induced TNF-α accumulation (in words) ([1]; Balb/C mice, s.c. injection or co-injected with endotoxin in the tail vein)	% Inhibition of LPS-induced TNF-α levels [1] [%]
~20	CCCC(=O)C1(c2ccccc2)CCN(C(=O)[C@@H](Cc2ccc(OC)cc2)NC(=O)[C@@H](N)Cc2cncn2C)CC1 [Example 11]	–	–
–	COc1ccc(C2CNC(=O)C2)cc1OC1CCCC1 (stereo not shown) [Rolipram]	inhibit	47
–	NDP-MSH	–	64
